Experiments:
[1] = In vivo toxicity after subcutaneous injection of hydrogels (serum ALT, AST, LDH); design: species or system OF-1 female mice; details: hydrogels injected subcutaneously in mice, serum markers up to day 21
Method: (§1) 10-week-old OF-1 female mice (Charles Rivers, France) were used for this study. Before the bilateral subcutaneous injection of hydrogels, mice were anaesthetized using 4.5% isoflurane gas and maintained throughout surgery at 2.5% isoflurane with a face mask. The animals were depilated before surgery. The three different hydrogels were prepared as mentioned above and collected in 1 ml syringes, when the solution was in viscous form. The hydrogels were injected subcutaneously by 21-gauge needle on the dorsal side of the animals.
The in vivo toxicity of the hydrogels formed from compounds 17, 20 and GNF was investigated by serum biochemical evaluation such as alanine aminotransferase (ALT Activity Assay Kit, Sigma-Aldrich, ref MAK052), aspartate aminotransaminase (AST Activity Assay Kit, Sigma-Aldrich, ref MAK055), and lactate dehydrogenase (LDH Assay Kit, Abcam, ref ab102526). At day 0 before surgery and three-time points after implantation (3, 7, and 21 days), blood was collected from retro-orbital sinus. The blood samples were allowed to clot then followed by centrifugation to collect the serum. The serum was used for analysis as recommended by the manufacturers.

blood vessels = assay: In vivo angiogenesis around subcutaneously injected hydrogels (CD31 immunostaining, blood vessel count); details: hydrogel injected subcutaneously in mice, day 21, CD31 immunostaining, four random regions
Method: as §1
Subcutaneous injection was carried out, as indicated in example 3, in order to characterize the behavior of the hydrogels after subcutaneous injection and in situ gelation. Animals were sacrificed by cervical dislocation one or three weeks after injection of the hydrogel. The biomaterials (i.e. hydrogel) together with the skin surrounding the injection point were harvested after 7, or 21 days and embedded in paraffin. Histological sections of skin portions associated to the hydrogel were then stained to assess the degradation pattern, cell infiltration (data not shown) and angiogenesis.
The blood vessels in and around the hydrogels 21 days after implantation were identified by immunolabelling with rabbit anti-CD31 antibody (Abcam, ref ab28364 dilution:1/100) followed by incubation with HRP-conjugated anti-rabbit secondary antibody (Vector MP-7401, dilution:1/2)
During the regeneration process, the development of neovessels in the remodeling tissue is of major importance. Therefore, immunostaining of CD31, an endothelial cell marker, was performed on day 21 to assess angiogenesis.
CD31 positive cells were not found inside the hydrogels, showing that the non-degraded hydrogels were bad substrates for blood vessel ingress. Figure 11B depicts the quantification of blood vessels counted manually per 0.2mm^2 at four different random regions in the tissue surrounding each hydrogel. […]

[2] = In vitro degradation of the hydrogels (weight loss in PBS); format: physicochemical; details: hydrogel 1.5% (w/v), PBS 1X, after 3 weeks at 37°C
Method: Hydrogels were prepared with compound 17, compound 20, GNF at a concentration of 1.5% (w/v) by dissolving the powder in sterile phosphate buffered saline solution (PBS 1X, pH 7.4). The suspensions were heated at 65 °C for GNF and 80°C for the compounds 17 and 20. The GNF solution was incubated at 37 °C for 30 min to form a gel, whereas the other molecules formed the gel within 5 min.
Hydrogels were also prepared from compound A, which was used as a control.
Hydrogel disks (100 µl) were prepared and were incubated in 7 ml of PBS 1X at 37°C for 21 days. All the hydrogel samples were weighed before incubating with the phosphate buffer (initial weight). The samples were removed at different time points (1, 2, 3, 5, 7, 15, and 21 days), weighed immediately after removing the excess of PBS by gently touching the surface of a tissue (Kimwipes™) and put back in the same solution of PBS.
The degradation was monitored by measuring the weight loss of the gels after different periods of incubation. After 3 weeks at 37°C, the remaining weights were 65 ± 4 %, 63 ± 1 %, and 55 ± 2 %, for GNF, compound 17 and compound 20, respectively, as shown on Figure 3..

[3] = MALDI-TOF analysis of degradation products released by the hydrogels in PBS; details: hydrogel, 21-day incubation in PBS at 37°C, MALDI-TOF of the buffer
Method: The degradation products generated during the 21-day incubation of the samples was determined by analyzing the PBS solution in which they were incubated. At day 21 the PBS was collected and analyzed for the degradation products of individual hydrogels by using mass spectroscopy. Studies, performed in triplicates, allowed for the calculation of degradation kinetics.
In order to assess the fragmentation of the molecules during incubation, the by-products of degradation present in the buffer were analysed by MALDI-TOF (Matrix Assisted Laser Desorption Ionization - Time of Flight) mass spectrometry at the end of the experiment (21 days) (Figures 4 and 5).
The analyses were carried out on the MALDI-TOF-TOF Ultraflex (Bruker) in positive reflector mode (detection of positively charged species in the form of [M + H] + and [M + Na] + ions).The external calibration of the spectrometer was carried out with a mixture of components in the mass range m / z 700-2500. The matrix used is a solution of 2,4,6 trihydroxyacetophenone at 20 mg / ml in EtOH / NH4 citrate 25 mM. The samples were diluted by a factor of 50 in water before MS analysis.

[4] = tested on: CAM of chick embryos (Gallus gallus); assay: Chick chorioallantoic membrane (CAM) angiogenesis assay; format: in vivo; details: 20 µl of 500 µg/ml in DMEM on day 13 and 14, evaluated day 17, versus DMEM control
Method: The angiogenesis assay was performed on the CAM of chick embryos (Gallus gallus) (E.A.R.L. Morizeau, Dangers, France). Embryos were incubated at 37°C and 70% humidity to […]. On day 3 of development, 3-5 ml of egg white was withdrawn by punctuating the air chamber with the syringe, and a window was made by cutting the eggshell and sealed with Durapore® tape. On day 13, prepared plastic rings (made from Nunc Thermanox® coverslips, diameter 13 mm and thickness 0.2mm) were placed on the intact CAM. 20 µl of the molecule (concentration 500 µg/ml in DMEM medium) or an equivalent volume of DMEM alone as control were deposited in the center of the plastic rings. The treatment was repeated the following day followed by photo documentation (day 14). On day 17, the eggs were fixed by addition of 2 ml of 4% paraformaldehyde (Antigenfix) for 30 min at room temperature. Imaging was performed with a stereomicroscope (Nikon SMZ800) using a digital camera (Nikon Coolpix 950). The images were scored for morphological changes of blood capillaries such as sprouting and tortuosity (0=normal, 1=overrepresented) by five observers using a blinded screening test (data not shown).
The angiogenic response was evaluated on day 17 based on two morphological parameters: sprouting, and presence of tortuous vessels (data not shown). […]

Molecule | toxicity to the vital organs [1] | numbers of blood vessels (bv) in the vicinity of the hydrogel (blood vessels) [bv/0.2 mm2] | remaining weights [2] [%] | fragmentation of the molecules during incubation (degradation products) [3] | sprouting ([4]; p = 0.0046 (Fisher's exact test)) | tortuous vessels ([4]; p = 0.0195 (Fisher's exact test))
1,14-bis-tetradecanyl-5'-[(4-methylamide)-1H-1,2,3-triazol-1-yl]-N-3-[1-((β-D-glucopyranoside)-1H-1,2,3-triazole-4-yl)methyl]-5'-deoxy thymidine [compound 20] | did not show any toxicity to the vital organs | 7.95 ± 0.74 | – | – | – | –
Cc1cn([C@H]2C[C@H](O)[C@@H](Cn3cc(CNC(=O)CCC(F)(F)C(F)(F)C(F)(F)C(F)(F)C(F)(F)C(F)(F)C(F)(F)C(F)(F)F)nn3)O2)c(=O)n(Cc2cn([C@@H]3O[C@H](CO)[C@@H](O)[C@H](O)[C@H]3O)nn2)c1=O [GNF] | did not show any toxicity to the vital organs | 6.10 ± 1.07 | 65 ± 4 | fragmentations of the hydrogel molecules as a result of degradation | – | –
Cc1cn([C@H]2C[C@H](O)[C@@H](CO)O2)c(=O)n(Cc2cn([C@@H]3O[C@H](CO)[C@@H](O)[C@H](O)[C@H]3O)nn2)c1=O [GN-1, N-3-[1-((β-D-Glucopyranoside)-1H-1,2,3-triazol-4-yl)methyl] thymidine] | – | – | – | – | more CAMs that were treated with GN-1 exhibited sprouting and tortuous vessels | more CAMs that were treated with GN-1 exhibited sprouting and tortuous vessels
Cc1cn([C@H]2C[C@H](O)[C@@H](Cn3cc(CNC(=O)NCCCCCCCCCCCCNC(=O)NCc4cn(C[C@H]5O[C@@H](n6cc(C)c(=O)n(Cc7cn([C@@H]8O[C@H](CO)[C@@H](O)[C@H](O)[C@H]8O)nn7)c6=O)C[C@@H]5O)nn4)nn3)O2)c(=O)n(Cc2cn([C@@H]3O[C@H](CO)[C@@H](O)[C@H](O)[C@H]3O)nn2)c1=O [compound 17, 1,12-bis-dodecanyl-5'-[(4-methylurea)-1H-1,2,3-triazol-1-yl]-N-3-[1-((β-D-glucopyranoside)-1H-1,2,3-triazole-4-yl)methyl]-5'-deoxy thymidine] | did not show any toxicity to the vital organs | 4.30±0.41 | – | fragmentations of the hydrogel molecules as a result of degradation | – | –

From EP3871678A1, “PRO-ANGIOGENIC COMPOUNDS” (UNIVERSITE DE BORDEAUX, priority 2020, dated 2021)
